Source: patent publication US20250026741A1, “INHIBITORS OF THE ONCOGENIC SHP2 PHOSPHATASE AND USES THEREOF” (Sanford Burnham Prebys Medical Discovery Institute, priority 2021, published 2025)
Like-named read-outs stand apart in the source and are kept apart here.

How the values were obtained:
[1] = test system: KYSE-520 esophageal cancer cells; experiment: Cell viability assay (CellTiter-Glo), KYSE-520; assay type: cell-based; settings: KYSE-520 cells, various concentrations, 3 d
Description: (§1) Inhibition of SHP2 has been reported to inhibit the growth of cancer cells including Kasumi-1 acute myeloid leukemia (AML) and KYSE-520 esophageal cancer cells. […] Cell viability is shown as a percentage of the vehicle (DMSO) control and represents the mean±SD. B) #02 dose-response curves in cell viability assays using Kasumi-1, KYSE-520, MOLM-13, and […] cells after 3 d in culture. The percentages compared to DMSO vehicle control were curve fitted using nonlinear regression (log[inhibitor] vs. normalized response, variable slope) and represent the mean±SD. C) Cell viability of […] and MDA-MB-468 triple-negative breast cancer (TNBC) cells in the presence of various concentrations of #02 or the SHP2 allosteric inhibitor SHP099 after 5 d in culture. Cell viability is shown as a percentage of DMSO vehicle control, representing mean±SD, and curve fitted as in B). D) Colony formation assay (11 d) of […] and MDA-MB-468 TNBC cells in the presence of various concentrations of #02 or the SHP2 allosteric inhibitor SHP099. E) Phospho-ERK1/2 (p-ERK1/2) immunoblot analysis from total cell lysates of MOLM-13 AML cells treated with #02 at the indicated concentrations, or with SHP2 allosteric inhibitor RMC-4550 (RMC, 1 μM) for 3 h or 24 h. The quantitation of p-ERK1/2 levels is shown as the percentage of the DMSO (vehicle) control and represents data from three independent experiments (mean±SD). F) Viability of AML patient-derived cells in the presence of 10 μM #02 or 10 μM SHP2 allosteric inhibitor RMC-4550 after 2 d, 4 d, or 6 d in culture. Cell viability is shown as a percentage of the DMSO vehicle control and represents the mean±SD (*p<0.05; **p<0.01; ****p<0.0001; unpaired test with Welch's correction) G) Viability of MOLM-13 cells and MOLM-13-Cas9-mCherry cells with SHP2 knockout (KO) in the presence of #01, #02, and allosteric inhibitor SHP099 at various concentrations (10-point dose-response). The percentages compared to the DMSO vehicle control were curve fitted using nonlinear regression (log[inhibitor] vs. normalized response, variable slope) and represent the mean±SD. SHP2 protein levels in regular MOLM-13 cells (WT), MOLM-13-Cas9-mCherry cells (Cas9), and MOLM-13-Cas9-mCherry cells with SHP2 KO (SHP2 KO) were evaluated by immunoblot analysis using SHP2 antibodies.
(§2) Viability of AML, esophageal carcinoma, and TF-1 cells was assessed using the ATP-depletion assay CellTiter-Glo® (Promega). Cells were harvested at 1×10^6/mL to 2×10^6 cells/mL with cell numbers determined by trypan blue using the Countess Cell counter (Thermo Scientific) and resuspended in culture media. […] Luminescence was read on a Tecan Spark® Multimode Microplate Reader and data analyzed using Graph Pad Prism software.

[2] = molecular target: full-length SHP2-E76K oncogenic mutant (Homo sapiens (Human), UniProt Q06124, E76K); experiment: DiFMUP fluorescence intensity phosphatase inhibition assay, SHP2-E76K; assay type: biochemical
Description: (§3) To test the synthesized compounds for their potential to inhibit SHP2 activity, a fluorescence intensity-based assay using 6,8-difluoro-4-methylumbelliferyl phosphate (DiFMUP) as the substrate was adapted for three recombinant SHP2 constructs: 1) the SHP2 catalytic domain (SHP2cat; residues 248-527), 2) the full-length SHP2-E76K oncogenic mutant, and 3) the full-length SHP2 wild-type (SHP2-WT). The recombinant SHP2 proteins were expressed and purified. A dually phosphorylated peptide derived from the insulin receptor substrate 1 (IRS-1) served as a surrogate binding protein and was used to activate SHP2-WT. […] Michaelis-Menten experiments to determine the DiFMUP Michaelis-Menten constant (Kmn) for each SHP2 construct were performed and yielded the following values: SHP2-WT, Km=60 μM; SHP2-E76K, Km=20 μM; SHP2cat, Km=20 μM. Relative maximum rates (Vmax) of the DiFMUP reactions were as follows: SHP2-WT, Vmax=871 AFU/min; SHP2-E76K, Vmax, =2730 AFU/min; SHP2cat, Vmax=2912 AFU/min. IC50 values for each compound were determined from initial rates in 10-point dose-response assays using DiFMUP at a concentration corresponding to its Km value for the respective SHP2 construct.
(§4) SHP2 inhibitors were tested at room temperature (RT) in a 384-well plate format standard phosphatase fluorescence intensity assay using DiFMUP (Invitrogen/Thermo Fisher Scientific, Carlsbad, CA) as a substrate and a total reaction volume of 25 μL. SHP2 inhibitors or vehicle (DMSO) were spotted in triplicate into a black Greiner FLUOTRAC™ 200 384-well microplate (#781076, Greiner) for a 10-point dose-response assay using an Echo®555 Liquid Handler (Labcyte, Inc., San Jose, CA). PTP working solutions were prepared at a 0.625 nM concentration (for a final concentration of 0.5 nM) in buffer containing 50 mM Bis-Tris pH 6.0, 50 mM NaCl, 5 mM DTT, and 0.01% Tween® 20. Prior to the assay, a dually phosphorylated insulin receptor substrate 1 (IRS-1) peptide [625 nM (500 nMfinal) (30)] was added to full-length WT SHP2 working solutions and incubated for 20 min. DiFMUP working solutions at 5× final concentration were prepared in 50 mM Bis-Tris pH 6.0, 50 mMNaCl, and 0.01% Tween 20. 20 μL of PTP working solution was dispensed into the microplate and incubated with inhibitor for 20 min at RT. […] The reaction was initiated by addition of 5 μL DiFMUP working solutions. Fluorescence intensity was measured in kinetic mode (every minute for 7 or 10 min) using a Tecan Spark® Multimode Microplate Reader (Tecan, Groedig, Austria) with an excitation wavelength of 360 nm and an emission wavelength of 460 nm. The initial rates were determined from the linear progression curves of the PTP reaction. The nonenzymatic hydrolysis of the substrate was corrected by using a control without addition of enzyme. IC50 values were calculated from the corrected initial rates by nonlinear regression using the program GraphPad Prism (GraphPad Software, Inc., San Diego, CA) Version 8. Dose-response inhibition assays of SHP2cat using the substrate OMFP were performed similarly as described above for DiFMUP. OMFP was used at a concentration corresponding to its Km value for SHP2cat (50 μM final). Fluorescence intensity was measured in kinetic mode (every minute for 10 min) using a Tecan Spark Multimode Microplate Reader with an excitation wavelength of 485 nm and an emission wavelength of 535 nm. Initial rates were determined and IC50 vales calculated as described above.

[3] = test system: Kasumi-1 acute myeloid leukemia (AML) cells; experiment: Cell viability assay (CellTiter-Glo), Kasumi-1; assay type: cell-based; settings: Kasumi-1 cells, various concentrations, 3 d
Description: as §1, §2

[4] = molecular target: full-length SHP2 wild-type (SHP2-WT) (Homo sapiens (Human), UniProt Q06124); experiment: DiFMUP fluorescence intensity phosphatase inhibition assay, SHP2-WT activated with IRS-1 peptide; assay type: biochemical; settings: DiFMUP at Km (60 μM), IRS-1 peptide activated
Description: as §3, §4

full-length SHP2-E76K oncogenic mutant, sequence (Q06124 whole entry E76K, the tested form may be a part): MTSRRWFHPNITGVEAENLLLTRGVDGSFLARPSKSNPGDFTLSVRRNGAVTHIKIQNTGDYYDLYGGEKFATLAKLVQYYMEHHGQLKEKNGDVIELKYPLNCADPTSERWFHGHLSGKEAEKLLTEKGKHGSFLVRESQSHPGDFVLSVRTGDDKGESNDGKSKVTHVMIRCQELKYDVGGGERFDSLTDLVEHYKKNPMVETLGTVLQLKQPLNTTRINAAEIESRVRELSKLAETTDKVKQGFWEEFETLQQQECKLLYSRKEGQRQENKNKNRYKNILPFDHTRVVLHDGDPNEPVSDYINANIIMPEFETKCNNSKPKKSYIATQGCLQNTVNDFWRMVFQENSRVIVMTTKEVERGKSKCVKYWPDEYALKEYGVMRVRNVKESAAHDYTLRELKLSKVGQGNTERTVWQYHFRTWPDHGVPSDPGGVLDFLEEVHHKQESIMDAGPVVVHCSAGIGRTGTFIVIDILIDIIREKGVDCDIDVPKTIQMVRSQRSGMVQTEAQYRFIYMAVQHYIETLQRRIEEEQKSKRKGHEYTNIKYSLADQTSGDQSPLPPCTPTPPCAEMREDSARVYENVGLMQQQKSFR

IC50 ([2]; DiFMUP at Km (20 μM), 10-point dose-response, read-out: SHP2-E76K IC50): ≥ 100 µM
IC50 ([2]; inactive analog used as negative control, SHP2 construct not specified, read-out: SHP2 IC50): > 100 µM
IC50 [4]: ≥ 100 µM
Structure (SMILES): CC(C)NC(=O)c1cccc(-c2ccc(/C=C3\Sc4ccccc4C3=O)o2)c1 [#20, (Z)—N-Isopropyl-3-(5-((3-oxobenzo[b]thiophen-2(3H)-ylidene)methyl)furan-2-yl)benzamide]
effect on cancer cell growth [1]: no notable effects
effect on cancer cell growth [3]: no notable effects
